Values after ≈ are worked out from the molar mass of the structure shown.
Legend:
Assay type in all cases: functional
Mycobacterium avium [1] = assay: Antimicrobial activity against Mycobacterium avium 8 after 2 to 4 weeks by two fold dilution method
Mycobacterium xenopi = assay: Antimicrobial activity against Mycobacterium xenopi after 2 to 4 weeks by two fold dilution method
[2] = tested on: Mycobacterium avium complex sp.; assay: Antimicrobial activity against Mycobacterium avium complex isolate after 2 to 4 weeks by two fold dilution method
Mycobacterium simiae = assay: Antimicrobial activity against Mycobacterium simiae after 2 to 4 weeks by two fold dilution method
Mycobacterium kansasii = assay: Antimicrobial activity against Mycobacterium kansasii after 2 to 4 weeks by two fold dilution method
Mycobacterium shimoidei = assay: Antimicrobial activity against Mycobacterium shimoidei after 2 to 4 weeks by two fold dilution method
Mycobacteroides chelonae = assay: Antimicrobial activity against Mycobacterium chelonae after 2 to 4 weeks by two fold dilution method
[3] = tested on: Mycobacterium intracellulare; assay: Antimicrobial activity against Mycobacterium intracellular 7 after 2 to 4 weeks by two fold dilution method
Mycobacterium szulgai = assay: Antimicrobial activity against Mycobacterium szulgai after 2 to 4 weeks by two fold dilution method
Mycobacterium avium [4] = assay: Antimicrobial activity against Mycobacterium avium 4 after 2 to 4 weeks by two fold dilution method
Mycobacterium avium [5] = assay: Antimicrobial activity against Mycobacterium avium 23 after 2 to 4 weeks by two fold dilution method
Mycobacterium avium [6] = assay: Antimicrobial activity against Mycobacterium avium 16 after 2 to 4 weeks by two fold dilution method
[7] = tested on: Mycobacterium tuberculosis; assay: Antimicrobial activity against drug-susceptible Mycobacterium tuberculosis isolate after 2 to 4 weeks by two fold dilution method
[8] = tested on: Mycolicibacterium novocastrense; assay: Antimicrobial activity against R207910 resistant Mycobacterium novocastrense after 2 to 4 weeks by two fold dilution method
Mycobacterium avium [9] = assay: Antimicrobial activity against Mycobacterium avium 1 after 2 to 4 weeks by two fold dilution method
Mycobacterium conspicuum = assay: Antimicrobial activity against Mycobacterium conspicuum after 2 to 4 weeks by two fold dilution method
Mycolicibacterium phlei = assay: Antimicrobial activity against Mycobacterium phlei after 2 to 4 weeks by two fold dilution method
Mycobacterium avium [10] = assay: Antimicrobial activity against Mycobacterium avium 6 after 2 to 4 weeks by two fold dilution method
[11] = tested on: Mycolicibacterium fortuitum; assay: Antimicrobial activity against Mycobacterium fortuitum after 2 to 4 weeks by two fold dilution method
Mycolicibacterium vaccae = assay: Antimicrobial activity against Mycobacterium vaccae after 2 to 4 weeks by two fold dilution method
Mycolicibacter terrae = assay: Antimicrobial activity against Mycobacterium terrae after 2 to 4 weeks by two fold dilution method
Mycobacterium gordonae = assay: Antimicrobial activity against Mycobacterium gordonae after 2 to 4 weeks by two fold dilution method
Mycobacterium avium [12] = assay: Antimicrobial activity against Mycobacterium avium 2 after 2 to 4 weeks by two fold dilution method
Mycobacterium avium [13] = assay: Antimicrobial activity against Mycobacterium avium 21 after 2 to 4 weeks by two fold dilution method
[14] = tested on: Mycobacterium scrofulaceum; assay: Antimicrobial activity against Mycobacterium scrofulaceum after 2 to 4 weeks by two fold dilution method
[15] = tested on: Mycobacterium intracellulare; assay: Antimicrobial activity against Mycobacterium intracellular 14 after 2 to 4 weeks by two fold dilution method
Mycobacterium avium [16] = assay: Antimicrobial activity against Mycobacterium avium 11 after 2 to 4 weeks by two fold dilution method
[17] = tested on: Mycobacterium intracellulare; assay: Antimicrobial activity against Mycobacterium intracellular 20 after 2 to 4 weeks by two fold dilution method
Mycobacterium malmoense = assay: Antimicrobial activity against Mycobacterium malmoense after 2 to 4 weeks by two fold dilution method
Mycolicibacter hiberniae = assay: Antimicrobial activity against Mycobacterium hiberniae after 2 to 4 weeks by two fold dilution method
Mycobacterium avium [18] = assay: Antimicrobial activity against Mycobacterium avium 9 after 2 to 4 weeks by two fold dilution method
[19] = tested on: Mycolicibacterium mageritense; assay: Antimicrobial activity against Mycobacterium mageritense after 2 to 4 weeks by two fold dilution method
[20] = tested on: Mycobacterium interjectum; assay: Antimicrobial activity against Mycobacterium interjectum after 2 to 4 weeks by two fold dilution method
[21] = Mycobacterium avium complex sp.

`COc1nc2ccc(Br)cc2cc1[C@@H](c1ccccc1)[C@@](O)(CCN(C)C)c1cccc2ccccc12` [BEDAQUILINE] was tested. Which MIC (Mycobacterium avium [1]) did it give?
The MIC was 0.03 µg/mL (≈ 0.054 µM).

What about the MIC (Mycobacterium xenopi) of the same molecule?
The MIC was 4 µg/mL (≈ 7.2 µM).

What about the MI50 [2] of the same molecule?
Its MI50 is 0.03 µg/mL.

What about the MIC [2, 21] of the same molecule?
Its MIC is 0.03 µg/mL (≈ 0.054 µM).

And the MIC90 [2, 21]?
The MIC90 was 0.13 µg/mL (≈ 0.234 µM).

And the MIC (Mycobacterium simiae)?
Its MIC is 0.03 µg/mL (≈ 0.054 µM).

What about the MIC (Mycobacterium kansasii) of the same molecule?
The MIC was 0.03 µg/mL (≈ 0.054 µM).

What about the MIC (Mycobacterium shimoidei) of the same molecule?
The MIC was 8 µg/mL (≈ 14.4 µM).

And the MIC (Mycobacteroides chelonae)?
Its MIC is 0.06 µg/mL (≈ 0.108 µM).

What about the MIC [3] of the same molecule?
Its MIC is 0.03 µg/mL (≈ 0.054 µM).

And the MIC (Mycobacterium szulgai)?
Its MIC is 0.03 µg/mL (≈ 0.054 µM).

And the MIC (Mycobacterium avium [4])?
Its MIC is 0.03 µg/mL (≈ 0.054 µM).

And the MIC (Mycobacterium avium [5])?
The MIC was 0.03 µg/mL (≈ 0.054 µM).

And the MIC (Mycobacterium avium [6])?
The MIC was 0.06 µg/mL (≈ 0.108 µM).

And the MIC [7]?
Its MIC is 0.002 µg/mL (≈ 0.0036 µM).

What about the MIC50 [7] of the same molecule?
Its MIC50 is 0.03 µg/mL (≈ 0.054 µM).

And the MIC90 [7]?
The MIC90 was 0.06 µg/mL (≈ 0.108 µM).

And the MIC [8]?
The MIC was 8 µg/mL (≈ 14.4 µM).

What about the MIC (Mycobacterium avium [9]) of the same molecule?
Its MIC is 0.03 µg/mL (≈ 0.054 µM).

What about the MIC (Mycobacterium conspicuum) of the same molecule?
The MIC was 0.13 µg/mL (≈ 0.234 µM).

And the MIC (Mycolicibacterium phlei)?
Its MIC is 0.03 µg/mL (≈ 0.054 µM).

And the MIC (Mycobacterium avium [10])?
Its MIC is 0.13 µg/mL (≈ 0.234 µM).

And the MIC [11]?
Its MIC is 0.13 µg/mL (≈ 0.234 µM).

What about the MIC (Mycolicibacterium vaccae) of the same molecule?
The MIC was 0.03 µg/mL (≈ 0.054 µM).

What about the MIC (Mycolicibacter terrae) of the same molecule?
The MIC was 0.03 µg/mL (≈ 0.054 µM).

And the MIC (Mycobacterium gordonae)?
The MIC was 0.03 µg/mL (≈ 0.054 µM).

What about the MIC (Mycobacterium avium [12]) of the same molecule?
Its MIC is 0.03 µg/mL (≈ 0.054 µM).

What about the MIC (Mycobacterium avium [13]) of the same molecule?
Its MIC is 0.03 µg/mL (≈ 0.054 µM).

And the MIC [14]?
The MIC was 0.03 µg/mL (≈ 0.054 µM).

And the MIC [15]?
Its MIC is 0.03 µg/mL (≈ 0.054 µM).

And the MIC (Mycobacterium avium [16])?
Its MIC is 0.03 µg/mL (≈ 0.054 µM).

What about the MIC [17] of the same molecule?
The MIC was 0.03 µg/mL (≈ 0.054 µM).

What about the MIC (Mycobacterium malmoense) of the same molecule?
Its MIC is 0.5 µg/mL (≈ 0.9 µM).

And the MIC (Mycolicibacter hiberniae)?
Its MIC is 0.03 µg/mL (≈ 0.054 µM).

And the MIC (Mycobacterium avium [18])?
Its MIC is 0.13 µg/mL (≈ 0.234 µM).

And the MIC [19]?
The MIC was 0.03 µg/mL (≈ 0.054 µM).

And the MIC [20]?
Its MIC is 0.03 µg/mL (≈ 0.054 µM).
